The inhibition is the percentage by which the read-out fell short of the control.

This is an account of results in patent publication US4465851A, “Guanidinocyclohexanecarboxylic acid derivatives” (Nippon Chemiphar Co., Ltd., priority 1981, dated 1984).

Where a name gives a salt, the structure may show the parent alone.

One assay deals with Chymotrypsin (Bos taurus, UniProt P00766). Nature of the assay: Inhibition of chymotrypsin (ATE hydrolysis). The class given is biochemical. As to conditions: 15 mM ATE, 30 minutes, 37° C., pH 8.0; read-out: Concentration for 50% inhibition (IC50), chymotrypsin. The protocol:
(§1) Inhibitory effects on the TAMe(N^α -tosyl-L-arginine methyl ester) hydrolytic activity of trypsin, plasmin, plasma kallikrein and thrombin were estimated by Hesterin's method modified by Roberts. Inhibition of the BAEe(N^α -benzoyl-L-arginine ethyl ester) hydrolytic activity of pancreas kallikrein was determined by Hesterin's method after incubation at 37° C. for 30 minutes in a 0.1M borate buffer, pH 8.0. Inhibitory effects on urokinase were determined by the chromotropic acid method after incubation of 60 iu of urokinase with 10 mM AGLMe(acetylglycyl-L-lysine methyl ester) at 37° C. for 30 minutes in a 0.06M phosphate buffer, pH 7.5, containing 0.09M NaCl. Inhibition of chymotrypsin was determined by Hesterin's method after incubation with 15 mM ATE (N^α -acetyl-L-tyrosine ethyl ester) for 30 minutes at 37° C. in a 0.1M borate buffer, pH 8.0.

A further assay deals with Pancreas kallikrein (Sus scrofa, UniProt P00752). Nature of the assay: Inhibition of pancreas kallikrein (BAEe hydrolysis). In kind it is biochemical. As to conditions: BAEe substrate, 37° C., 30 minutes, pH 8.0; read-out: Concentration for 50% inhibition (IC50), pancreas kallikrein. The protocol: as §1
Chain of Pancreas kallikrein (P00752 15-246 limits assumed): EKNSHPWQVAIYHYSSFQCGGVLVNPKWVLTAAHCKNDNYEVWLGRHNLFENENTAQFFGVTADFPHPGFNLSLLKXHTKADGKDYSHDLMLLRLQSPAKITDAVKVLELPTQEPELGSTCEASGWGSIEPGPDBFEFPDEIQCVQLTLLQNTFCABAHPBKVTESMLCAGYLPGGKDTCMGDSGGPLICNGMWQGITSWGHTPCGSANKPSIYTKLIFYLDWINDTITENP
The next assay has as its target Urokinase (Homo sapiens, UniProt P00749). Nature of the assay: Inhibition of urokinase (AGLMe, chromotropic acid method). The class given is biochemical. The conditions noted are these: 60 iu urokinase, 10 mM AGLMe, 37° C., 30 minutes, pH 7.5; read-out: Concentration for 50% inhibition (IC50), urokinase. The protocol: as §1
In assay [1] the test system is ileum of each sensitized guinea pig. Nature of the assay: Schultz-Dale reaction. As to conditions: Cavia porcellus, read-out: Inhibition of contraction (Schultz-Dale reaction); for inhibition at 25 µg/mL: final conc. 25 μg/ml; for inhibition at 50 µg/mL: final conc. 50 μg/ml. As for the experimental part: Male guinea pigs were sensitized with bovine serum albumin by Freund's complete adjuvant method. After a lapse of 10 days, the animals were sensitized once more as described above. After two more weeks, an ileum of each sensitized guinea pig was removed and used for experiment. The ileum was equipped in a magnus tube containing each test sample, and 500 μg of bovine serum albumin was added. The contraction of the ileum was determined.

The test system of assay [2] is guinea pigs ilea. The assay can be described thus: Anti-acetylcholine action. Set-up: species or system guinea pig. The conditions noted are these: Cavia porcellus, read-out: Anti-acetylcholine effect inhibition of contraction; for inhibition at 25 µg/mL: final conc. 25 μg/ml; for inhibition at 50 µg/mL: final conc. 50 μg/ml. From the text: (§2) Anti-acetylcholine and anti-histamine effects of the present compounds were examined using guinea pigs ilea by the usual method.

The test system of assay [3] is guinea pigs ilea. Nature of the assay: Anti-histamine action. Set-up: species or system guinea pig. As to conditions: Cavia porcellus, read-out: Anti-histamine effect inhibition of contraction; for inhibition at 25 µg/mL: final conc. 25 μg/ml; for inhibition at 50 µg/mL: final conc. 50 μg/ml.
Excerpt: as §2

Another assay concerns the target T1, Trypsin (Bos taurus, UniProt P00760).
T1 sequence (P00760 24-246): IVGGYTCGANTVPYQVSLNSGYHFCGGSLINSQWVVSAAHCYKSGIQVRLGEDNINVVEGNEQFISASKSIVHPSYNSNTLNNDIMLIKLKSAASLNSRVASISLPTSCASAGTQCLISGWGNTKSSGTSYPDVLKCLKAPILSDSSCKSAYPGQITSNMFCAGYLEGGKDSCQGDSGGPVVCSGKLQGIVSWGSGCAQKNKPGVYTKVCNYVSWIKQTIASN
Nature of the assay: Inhibition of trypsin (TAMe hydrolysis). The class given is biochemical. The conditions noted are these: TAMe substrate; read-out: Concentration for 50% inhibition (IC50), trypsin. As for the experimental part: as §1

A further assay concerns the target Plasma kallikrein (Homo sapiens, UniProt P03952). Nature of the assay: Inhibition of plasma kallikrein (TAMe hydrolysis). The class given is biochemical. As to conditions: TAMe substrate; read-out: Concentration for 50% inhibition (IC50), plasma kallikrein. The protocol: as §1
For a further assay, the target named is Thrombin (Homo sapiens, UniProt P00734). The assay can be described thus: Inhibition of thrombin (TAMe hydrolysis). In kind it is biochemical. As to conditions: TAMe substrate; read-out: Concentration for 50% inhibition (IC50), thrombin.
Assay [4] relates to Mast cells. Nature of the assay: Effects on histamine release from mast cells induced by compound 48/80. In kind it is cell-based. The conditions noted are these: Mast cell; 10 μg/ml test compound; compound 48/80 induced; read-out: Inhibition of histamine release.
Protocol: After incubation for 20 minutes at 37° C., the suspension was cooled to 4° C., and released histamine was determined as described by Shore et al. All samples examined were recognized to cause no disturbance in the fluorometric assay.
Another assay concerns the target Plasmin (Homo sapiens, UniProt P00747). Nature of the assay: Inhibition of plasmin (TAMe hydrolysis). As to conditions: TAMe substrate; read-out: Concentration for 50% inhibition (IC50), plasmin. The class given is biochemical. The protocol: as §1
Assay [5] has as its system Mast cells. The conditions noted are these: Life Sciences 10, 805-812 (1971); Internal Medicine 42(6), 933 (1978); cited from earlier work.

Chain of Plasmin (P00747 97-580 limits assumed, species assumed): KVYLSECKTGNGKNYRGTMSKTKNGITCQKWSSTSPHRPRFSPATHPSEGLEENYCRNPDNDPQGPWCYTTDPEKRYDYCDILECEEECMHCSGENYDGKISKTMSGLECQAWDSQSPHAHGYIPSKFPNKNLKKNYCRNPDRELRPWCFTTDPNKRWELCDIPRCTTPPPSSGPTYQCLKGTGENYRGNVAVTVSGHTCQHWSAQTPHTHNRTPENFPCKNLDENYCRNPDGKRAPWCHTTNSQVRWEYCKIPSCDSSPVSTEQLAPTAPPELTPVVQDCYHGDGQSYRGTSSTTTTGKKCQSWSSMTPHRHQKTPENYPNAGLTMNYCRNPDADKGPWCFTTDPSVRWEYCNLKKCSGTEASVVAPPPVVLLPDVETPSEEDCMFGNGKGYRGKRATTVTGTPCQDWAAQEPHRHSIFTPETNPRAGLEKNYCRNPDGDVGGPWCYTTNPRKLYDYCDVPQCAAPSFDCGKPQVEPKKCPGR
Chain of Plasma kallikrein (P03952 20-390 limits assumed, species assumed): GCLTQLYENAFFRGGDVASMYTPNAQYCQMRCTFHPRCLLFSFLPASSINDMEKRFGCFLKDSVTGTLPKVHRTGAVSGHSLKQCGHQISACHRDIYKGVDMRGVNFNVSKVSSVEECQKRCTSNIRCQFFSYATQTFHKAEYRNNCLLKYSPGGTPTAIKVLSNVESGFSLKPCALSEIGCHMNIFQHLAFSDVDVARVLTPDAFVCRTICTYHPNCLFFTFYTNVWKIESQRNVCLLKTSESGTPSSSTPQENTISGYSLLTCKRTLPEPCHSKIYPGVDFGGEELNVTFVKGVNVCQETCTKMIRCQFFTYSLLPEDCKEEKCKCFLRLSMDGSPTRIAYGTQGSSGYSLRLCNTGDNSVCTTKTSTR

As for `Cc1ccc(OC(=O)[C@H]2CC[C@H](CNC(=N)N)CC2)cc1` [Compound 3, 4'-Methylphenyl trans-4-guanidinomethylcyclohexanecarboxylate hydrochloride], the IC50 was 70 µM at Chymotrypsin, 320 µM on Pancreas kallikrein and 260 µM on Urokinase. The inhibition at 25 µg/mL stood at 83.3% in assay [1], 100% in the assay with guinea pigs ilea [2] and 98% in the assay with guinea pigs ilea [3]. Besides, the inhibition at 50 µg/mL (in [1]; with guinea pigs ilea [2]; in the assay with guinea pigs ilea [3]) was 100% each time.

Consider `N=C(N)NC[C@H]1CC[C@H](C(=O)Oc2ccccc2Cl)CC1` [Compound 5, 2'-Chlorophenyl trans-4-guanidinomethylcyclohexanecarboxylate hydrochloride], for which the IC50 on Trypsin turned out to be 390 µM; on Chymotrypsin, 12 µM; at Pancreas kallikrein, 90 µM; on Plasma kallikrein, 300 µM; on Thrombin, 160 µM; on Urokinase, 160 µM.

With `N=C(N)NC[C@H]1CC[C@H](C(=O)Oc2ccc(Br)cc2)CC1` [Compound 6, 4'-Bromophenyl trans-4-guanidinomethylcyclohexanecarboxylate hydrochloride], the IC50 on Trypsin is 260 µM; at Pancreas kallikrein it was 150 µM; at Thrombin, 180 µM.

`N=C(N)NC[C@H]1CC[C@H](C(=O)Oc2ccc(I)cc2)CC1` [Compound 7, 4'-Iodophenyl trans-4-guanidinomethylcyclohexanecarboxylate hydrochloride]: the inhibition at 10 µg/mL in the assay on Mast cells [4] worked out at 18.4%.

Regarding `N=C(N)NC[C@H]1CC[C@H](C(=O)Oc2ccc(Cl)cc2)CC1` [Compound 10, 4'-Chlorophenyl trans-4-guanidinomethylcyclohexanecarboxylate hydrochloride], the inhibition at 25 µg/mL in [1] is 100%; with guinea pigs ilea [2], 89.8%; in the assay on guinea pigs ilea [3], 100%. Besides, the inhibition at 50 µg/mL (in assay [1]; in the assay with guinea pigs ilea [2]; with guinea pigs ilea [3]) was 100% throughout.

Take `Cc1ccc(C(C)C)c(OC(=O)[C@H]2CC[C@H](CNC(=N)N)CC2)c1` [Compound 13, 2'-iso-Propyl-5'-methylphenyl trans-4-guanidinomethylcyclohexanecarboxylatehydrochloride]: the IC50 on Plasmin was 400 µM; on Pancreas kallikrein it was 400 µM; on Urokinase, 30 µM.

Regarding `Cc1cc(OC(=O)[C@H]2CC[C@H](CNC(=N)N)CC2)c(C(C)C)cc1Cl` [Compound 14, 2'-iso-Propyl-4'-chloro-5'-methylphenyl trans-4-guanidinomethylcyclohexanecarboxylate hydrochloride], the IC50 on Trypsin is 190 µM; on Chymotrypsin, 100 µM; at Plasmin it was 400 µM; at Pancreas kallikrein it was 130 µM; at Thrombin, 240 µM. The inhibition at 10 µg/mL with Mast cells [4] worked out at 38.8%.

For `N=C(N)NC[C@H]1CC[C@H](C(=O)Oc2ccc([N+](=O)[O-])cc2)CC1` [Compound 15, 4'-Nitrophenyl trans-4-guanidinomethylcyclohexanecarboxylate hydrochloride], the IC50 on Trypsin amounted to 90 µM; at Chymotrypsin, 2.8 µM; on Pancreas kallikrein, 25 µM; at Plasma kallikrein, 300 µM; on Thrombin, 95 µM; on Urokinase it was 31 µM.

Turning to `N#Cc1ccccc1OC(=O)[C@H]1CC[C@H](CNC(=N)N)CC1` [Compound 21, 2'-Cyanophenyl trans-4-guanidinomethylcyclohexanecarboxylate hydrochloride], the IC50 amounted to 200 µM on Plasmin, 30 µM on Pancreas kallikrein and 110 µM at Urokinase.

With `N=C(N)NC[C@H]1CC[C@H](C(=O)Oc2ccc3c(c2)CCC3)CC1` [Compound 23, 5'-Indanyl trans-4-guanidinomethylcyclohexanecarboxylate hydrochloride], in the assay with Mast cells [4], the inhibition at 10 µg/mL was 12.7%.

On to `N=C(N)NC[C@H]1CC[C@H](C(=O)Oc2ccc3ccc(=O)oc3c2)CC1` [Compound 24, 7'-(2'-Oxochromenyl)trans-4-guanidinomethylcyclohexanecarboxylate hydrochloride], for which the IC50 at Chymotrypsin stood at 6 µM; on Pancreas kallikrein, 20 µM; at Thrombin, 230 µM; on Urokinase, 50 µM.

On to `N=C(N)NC[C@H]1CC[C@H](C(=O)Oc2ccc(Cl)c3ccccc23)CC1` [Compound 28, 4'-Chloronaphthyl trans-4-guanidinomethylcyclohexanecarboxylate hydrochloride], for which the inhibition at 10 µg/mL in the assay on Mast cells [4] turned out to be 60.9%. For the same molecule, the results for the inhibition at 25 µg/mL (in assay [1]; with guinea pigs ilea [2]; in the assay with guinea pigs ilea [3]) were 80%, 68% and 99.7%, respectively. The results for the inhibition at 50 µg/mL (in assay [1]; in the assay on guinea pigs ilea [2]; in the assay with guinea pigs ilea [3]) were 100%, 76% and 100%, respectively.

Take `N=C(N)NC[C@H]1CC[C@H](C(=O)Oc2ccc3ccccc3c2[N+](=O)[O-])CC1` [Compound 29, 2'-(1'-Nitro)naphthyl trans-4-guanidinomethylcyclohexanecarboxylate hydrochloride]: in the assay on Mast cells [4], the inhibition at 10 µg/mL amounted to 20.6%. For the same molecule, in the assay on guinea pigs ilea [2], the inhibition at 25 µg/mL was 52% and the inhibition at 50 µg/mL was 80%.

With `N=C(N)NC[C@H]1CC[C@H](C(=O)Oc2ccccc2)CC1` [Compound A, Phenyl trans4-guanidinomethylcyclohexanecarboxylate hydrochloride, reference compound], in the assay on Mast cells [4], the inhibition at 10 µg/mL was 5%. Also, the inhibition at 25 µg/mL in [1] is 0%; with guinea pigs ilea [3], 100%. For the same molecule, the inhibition at 50 µg/mL came to 0% in [1] and 100% in the assay on guinea pigs ilea [3].

Turning to `O=C(O)c1cc(=O)c2c(OCC(O)COc3cccc4oc(C(=O)O)cc(=O)c34)cccc2o1` [DSCG, Disodium cromoglycate, reference compound], the inhibition at 10 µg/mL in the assay on Mast cells [4] was 10%. Also, in the assay on guinea pigs ilea [3], the inhibition at 25 µg/mL turned out to be 0% and the inhibition at 50 µg/mL is 0%. Besides, in the assay on Mast cells [5], the “inhibitory effects on histamine release from mast cells” value is “has inhibitory effects on histamine release from mast cells”.
